The target in assay [1] is T1, Human GPR40 (Homo sapiens, UniProt O14842). In words: Inositol Phosphate Turnover (IP1) Assay 2. Type of assay: cell-based. Set-up: expressed in transfected cells; host or cells: HEK cells stably expressing the aequorin reporter. The note with it: HEK cells stably expressing human GPR40, 384-well, CisBio IP-One kit. The protocol:
The assay was performed in 384-well format. HEK cells stably expressing human GPR40 were plated at 15,000 cells per well in growth medium (DMEM/10% fetal calf serum). Cell plates were then incubated 16 hours at 37 degrees in a 5% CO2 incubator.
Measurement of Inositol Phosphate Turnover (IP1) was performed using the CisBio IP-One kit (Part number 62IPAPEB). After the 16 hour incubation, the cells were washed with HEPES buffer and 10 ul of stimulation buffer (prepared as described in the kit) was added to each well. In a separate plate, compounds were diluted in DMSO (400-fold over the final concentration in the assay well) and 25 nl was acoustically transferred to the appropriate well in the assay cell plate. The plates were then incubated for 60 minutes at 37 degrees. 10 ul of detection buffer (also prepared as described in the IP-One kit) was added to each well and the plates were incubated for 60 minutes in the dark. The plates were then read in a Perkin Elmer EnVision or equivalent reader able to measure FRET. Fluorescent ratio of emission at 665 and 620 nm was then converted to IP1 concentration by back calculating from an IP1 standard curve prepared at the time of the assay.

Assay [2] has as its target T1, Human GPR40. In words: Inositol Phosphate Turnover (IP1) Assay 1. The note with it: HEK cells stably expressing human GPR40, 96-well, 3H-inositol labeling, SPA beads. Type of assay: cell-based. Also on record: expressed in transfected cells; host or cells: HEK cells stably expressing the aequorin reporter. The protocol: Human and mouse GPR40 stable cell-lines were generated in CHO cells stably expressing NFAT BLA (Beta-lactamase). A human GPR40 stable cell-line was generated in HEK cells stably expressing the aequorin expressing reporter. The expression plasmids were transfected using lipofectamine (Life Technologies) following manufacturer's instructions. Stable cell-lines were generated following drug selection.
The assay was performed in 96-well format. HEK cells stably expressing human GPR40 were plated to be 60-80% confluent within 72 h. After 72 h, the plates were aspirated and the cells washed with inositol-free DMEM (ICN). The wash media was replaced with 150 μL of 3H-inositol labeling media (inositol-free media containing 0.4% human albumin or 0.4% mouse albumin, 1× pen/strep antibiotics, glutamine, 25 mM HEPES to which was added 3H-myo-inositol NEN #NET114A 1 mCi/mL, 25 Ci/mmol diluted 1:150 in loading media with a final specific radioactivity of 1 μCi/150 μL). Alternatively, the human and mouse albumin can be added after the overnight labeling step before the addition of LiCl.
The assay was typically run the next day after 18 h labeling. On the day of the assay, 5 μL of 300 mM LiCl was added to all wells and incubated at 37 degrees for 20 min 0.75 μL of 200× compounds were added and incubated with the cells for 60 min at 37 degrees. The media was then aspirated off and the assay terminated with the addition of 60 μL 10 mM formic acid. The cells were lysed for 60 min at room temperature. 15-30 μL of lysate was mixed with 70 μL/1 mg YSi SPA beads (Amersham) in clear bottom Isoplates. The plates were shaken for 2 h at room temperature. Beads were allowed to settle and the plates were counted in the Wallac Microbeta.

Structures are written as SMILES.

T1 sequence (O14842 whole entry): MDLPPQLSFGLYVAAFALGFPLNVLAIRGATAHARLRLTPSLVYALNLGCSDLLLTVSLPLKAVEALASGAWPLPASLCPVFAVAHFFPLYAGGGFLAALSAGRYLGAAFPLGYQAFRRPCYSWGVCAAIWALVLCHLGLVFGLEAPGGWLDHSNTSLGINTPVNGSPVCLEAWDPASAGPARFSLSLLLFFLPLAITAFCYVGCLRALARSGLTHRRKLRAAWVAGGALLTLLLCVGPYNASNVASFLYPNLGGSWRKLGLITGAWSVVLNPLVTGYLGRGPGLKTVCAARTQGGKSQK

Take `Cc1cc(OCCC(C)(O)CO)cc(C)c1-c1cc(COc2cc3c(cn2)[C@H]2[C@@H](C3)[C@@H]2C(=O)O)c(F)cc1F` (stereo partly drawn) [Example 19, (5aR,6S,6aS)-3-((4′-(3,4-dihydroxy-3-methyl-butoxy)-4,6-difluoro-2′,6′-dimethyl-[1,1′-biphenyl]-3-yl)methoxy)-5,5a,6,6a-tetrahydro-cyclopropa[4,5]-cyclopenta[1,2-c] pyridine-6-carboxylic acid]: it took 1.6 nM to reach a half-maximal effect in assay [1] (EC50).

As for `C[C@@](O)(CO)CCOc1ccc(-c2cc(COc3cc4c(cn3)[C@H]3[C@@H](C4)[C@@H]3C(=O)O)c(F)cc2F)c(Cl)c1` [Example 21, (5aR,6S,6aS)-3-((2′-chloro-4′-((S)-3,4-dihydroxy-3-methyl-butoxy)-4,6-di-fluoro-[1,1′-biphenyl]-3-yl)methoxy)-5,5a,6,6a-tetrahydrocyclopropa [4,5]cyclopenta[1,2-c] pyridine-6-carboxylic acid], in assay [1], the EC50 (as a rule, the concentration at which the effect is half-maximal) was found to be 2.2 nM. This EC50 and that of the compound before are within 1.5-fold of each other.

With `Cc1cc(OCC[C@@H](O)CO)cc(C)c1-c1cc(COc2cc3c(cn2)[C@H]2[C@@H](C3)[C@@H]2C(=O)O)c(F)cc1F` [Example 25, (5aR,6S,6aS)-3-((4′-((R)-3,4-dihydroxy-butoxy)-4,6-difluoro-2′,6′-dimethyl-[1,1′-biphenyl]-3-yl)methoxy)-5,5a,6,6a-tetrahydrocyclo-propa[4,5]cyclopenta [1,2-c]pyridine-6-carboxylic acid], the EC50 in assay [2] was determined as 4.7 nM; in assay [1], 3.8 nM.

As for `Cc1cc(OCC[C@H](O)CO)cc(C)c1-c1cc(COc2cc3c(cn2)[C@H]2[C@@H](C3)[C@@H]2C(=O)O)c(F)cc1F` [Example 24, Sodium (5aR,6S,6aS)-3-((4′-((S)-3,4-dihydroxybutoxy)-4,6-difluoro-2′,6′-dimethyl-[1,1′-biphenyl]-3-yl)methoxy)-5,5a,6,6a-tetrahydrocyclopropa[4,5]cyclopenta[1,2-c]pyridine-6-carboxylate], the figures for the EC50 in assay [2] and in assay [1] were 4.6 nM and 1.3 nM, respectively.

Values taken from patent publication US9932311B2, “Antidiabetic tricyclic compounds” (Merck Sharp & Dohme Corp., priority 2013, dated 2018).
